This is an account of results in patent publication US20210214364A1, “sGC STIMULATORS” (Cyclerion Therapeutics, Inc., priority 2013, published 2021).

Structures are written as SMILES.

For orientation: EC50 means the concentration needed to bring the measured effect to its halfway point. In general, IC50 refers to the point on the concentration scale where inhibition reaches its midpoint.

One assay deals with T1, soluble guanylate cyclase (sGC) endogenously expressed in HEK293 cells (Homo sapiens, UniProt Q02108+Q02153).
T1 construct: endogenously expressing soluble guanylate cyclase (sGC); endogenous in cells; host or cells: HEK293
T1 sequence (Q02153 1-619): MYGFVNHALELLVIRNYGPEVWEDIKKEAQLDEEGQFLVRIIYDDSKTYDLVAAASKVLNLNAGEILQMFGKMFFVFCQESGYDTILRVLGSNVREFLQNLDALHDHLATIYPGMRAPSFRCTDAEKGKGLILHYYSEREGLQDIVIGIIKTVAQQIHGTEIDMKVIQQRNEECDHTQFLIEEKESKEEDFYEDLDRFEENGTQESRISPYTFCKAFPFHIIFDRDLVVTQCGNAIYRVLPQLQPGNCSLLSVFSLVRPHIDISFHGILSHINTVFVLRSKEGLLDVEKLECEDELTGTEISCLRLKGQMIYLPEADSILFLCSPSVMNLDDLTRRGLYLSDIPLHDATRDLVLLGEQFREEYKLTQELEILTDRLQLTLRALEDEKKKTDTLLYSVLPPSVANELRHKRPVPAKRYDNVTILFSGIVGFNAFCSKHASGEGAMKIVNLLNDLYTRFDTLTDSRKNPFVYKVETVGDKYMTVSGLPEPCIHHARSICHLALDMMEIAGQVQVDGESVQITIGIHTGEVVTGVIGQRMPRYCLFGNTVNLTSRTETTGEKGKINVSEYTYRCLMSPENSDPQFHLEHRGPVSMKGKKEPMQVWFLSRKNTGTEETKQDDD
T1 sequence (Q02108 1-690): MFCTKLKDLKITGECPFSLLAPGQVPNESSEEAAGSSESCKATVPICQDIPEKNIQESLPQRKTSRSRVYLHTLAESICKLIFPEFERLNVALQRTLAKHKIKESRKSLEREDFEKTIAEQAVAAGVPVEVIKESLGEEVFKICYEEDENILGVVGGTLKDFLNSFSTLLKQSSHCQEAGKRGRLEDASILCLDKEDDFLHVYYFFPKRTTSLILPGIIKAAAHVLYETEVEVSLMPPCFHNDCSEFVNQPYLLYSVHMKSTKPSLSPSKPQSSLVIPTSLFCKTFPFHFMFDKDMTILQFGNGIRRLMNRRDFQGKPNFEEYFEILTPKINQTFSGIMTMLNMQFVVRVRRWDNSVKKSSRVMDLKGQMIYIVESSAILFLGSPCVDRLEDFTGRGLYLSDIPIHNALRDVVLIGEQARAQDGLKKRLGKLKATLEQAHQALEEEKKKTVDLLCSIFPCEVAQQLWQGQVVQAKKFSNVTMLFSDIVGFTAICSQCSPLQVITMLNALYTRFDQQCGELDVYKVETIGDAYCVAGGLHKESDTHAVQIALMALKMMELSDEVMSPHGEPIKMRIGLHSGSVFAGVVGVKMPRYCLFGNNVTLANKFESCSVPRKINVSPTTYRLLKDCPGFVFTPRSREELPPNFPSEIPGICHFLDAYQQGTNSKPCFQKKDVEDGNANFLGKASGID
The assay can be described thus: sGC-HEK-cGMP assay with LC/MS detection (whole cell). Type of assay: cell-based. The note with it: 10 μM DETA-NONOate, 20 min, concentration eliciting 50% of high control response (30 μM Compound Y), read-out: sGC_HEK_LC MS EC50 Abs. Here is the method:
Example 2: Biological Activity Measurement by the sGC-HEK-cGMP Assay, with LC/MS Detection
Human embryonic kidney cells (HEK293), endogenously expressing soluble guanylate cyclase (sGC), were used to evaluate the activity of test compounds. Compounds stimulating the sGC enzyme should cause an increase in the intracellular concentration of cGMP. HEK 293 cells were seeded in Dulbecco's Modification of Eagle's Medium supplemented with fetal bovine serum (10% final) and penicillin (100 U/mL)/streptomycin (100 μg/mL) in a 50 μL volume at a density of 1.5×10^4 cells/well in a poly-D-lysine coated 384 well flat bottom plate. Cells were incubated overnight at 37° C. in a humidified chamber with 5% CO2. Medium was aspirated and cells were washed with 1× Hank's Buffered Saline Salt Solution (50 μL). Cells were then incubated for 15 minutes at 37° C. with 50 μL of a 0.5 mM 3-isobutyl-1-methylxanthine (IBMX) solution. Test article and Diethylenetriamine NONOate (DETA-NONOate) solutions (x […] concentration for test article solution and 10 μM concentration for DETA-NONOate solution; wherein x is one of the following concentrations);
were then added to the assay mixture and the resulting mixture incubated at 37° C. for 20 minutes. After the 20 minute incubation, the assay mixture was aspirated and 10% acetic acid containing 150 ng/mL+3-cGMP (internal standard for LCMS) (50 μL) was added to the cells. The plate was incubated at 4° C. for 30 minutes in the acetic acid solution to stop the reaction and lyse the cells. The plates were then centrifuged at 1,000 g for 3 minutes at 4° C. and the supernatant transferred to a clean reaction plate for LCMS analysis.
cGMP concentrations were determined from each sample using the LCMS conditions below (Table 2) and calculated standard curve. The standard curve was prepared in 10% acetic acid with 150 ng/mL+3cGMP (isotopically labelled cGMP with a weight 3 units higher than wild type) with the following final concentrations of cGMP in ng/mL: 1, 5, 10, 50, 100, 250, 500, 1000, 2000.
Data were normalized to a high control using the following equation: 100*(Sample−Low Control)/(High Control−Low Control), where the low control is the average of 16 samples treated with 1% DMSO, and the high control is the average of 16 samples treated with 30 μM of Compound Y depicted below. Data were fit using a 4-parameter fit (log(agonist) vs. response variable slope) using GraphPad Prism Software v.5. n=2 for all compounds. The Absolute EC50 was interpolated from the curve fit and is defined as the concentration at which a given compound elicits 50% of the high control response. Compounds failing to elicit a minimum response of 50% are reported as >30 μM. For compounds run in duplicate or n higher than 2, the result herein given is the geometric mean of the several results obtained.
For `CC1(C(=O)NC2CC2)C(=O)Nc2nc(-c3cc(OC(F)F)n(CCC(F)(F)C(F)(F)F)n3)nc(N)c21` (centres unmarked) [Compound I-50], the EC50 is not below 1000 nM.

For the compound `CCOC(=O)C1(C)C(=O)Nc2nc(-c3cc(OC(F)F)n(Cc4cccc(F)c4F)n3)nc(N)c21` (centres unmarked) [Compound I-52], the EC50 lay in the range of 101 to 1000 nM.

In the case of `CC1(C(N)=O)C(=O)Nc2nc(-c3cc(OC(F)F)n(Cc4cccc(F)c4F)n3)nc(N)c21` (centres unmarked) [Compound I-53], the EC50 was 101 to 1000 nM.

Regarding `CC1(C(=O)NC2CC2)C(=O)Nc2nc(-c3cc(OC(F)F)n(Cc4cccc(F)c4F)n3)nc(N)c21` (centres unmarked) [Compound I-54], the EC50 was 101 to 1000 nM.

In the case of `CCOC(=O)C1(C)C(=O)Nc2nc(-c3cc(OC(F)F)n(Cc4ccc(F)cc4F)n3)nc(N)c21` (centres unmarked) [Compound I-55], the EC50 was 101 to 1000 nM.

Regarding `CCOC(=O)C1(C)C(=O)Nc2nc(-c3cc(OC(F)F)n(CCC(F)(F)C(F)(F)F)n3)nc(N)c21` (centres unmarked) [Compound I-57], the EC50 was not below 1000 nM.

Regarding `Fc1cnc(-c2cc(OC(F)F)n(Cc3cccc(F)c3F)n2)nc1` [Compound I-59], the EC50 is not below 1000 nM.

`COc1cc(-c2ncc(F)c(NC[C@@H](C(=O)O)C(C)C)n2)nn1Cc1ccccc1F` [Compound I-60]: the EC50 is 101 to 1000 nM.

`COc1cc(-c2ncc(F)c(N3CCC(O)(CO)CC3)n2)nn1Cc1ccccc1F` [Compound I-61]: the EC50 was not below 1000 nM.

As to `COc1cc(-c2ncc(F)c(N3CCNC(=O)C3)n2)nn1Cc1ccccc1F` [Compound I-62], the EC50 is not below 1000 nM.

`COc1cc(-c2ncc(F)c(NCC(O)CO)n2)nn1Cc1ccccc1F` (centres unmarked) [Compound I-64]: the 50% effective concentration (EC50) was not below 1000 nM.

Turning to `COc1cc(-c2ncc(F)c(NC(c3nnn[nH]3)C(C)C)n2)nn1Cc1ccccc1F` (centres unmarked) [Compound I-65], the EC50 is not below 1000 nM.

Turning to `COc1cc(-c2ncc(F)c(N(C)CC3(C(=O)O)CCCC3)n2)nn1Cc1ccccc1F` [Compound I-66], the EC50 lay in the range of 101 to 1000 nM.

On to `COc1cc(-c2ncc(F)c(N3CCC(C(=O)O)(C(C)C)CC3)n2)nn1Cc1ccccc1F` [Compound I-67], for which the 50% effective concentration (EC50) was 101 to 1000 nM.

`COc1cc(-c2ncc(F)c(N3CCC(C)(C(=O)O)CC3)n2)nn1Cc1ccccc1F` [Compound I-68]: the half-maximal effective concentration (EC50) fell in the range of 101 to 1000 nM.

Consider `COc1cc(-c2ncc(F)c(NCCS(N)(=O)=O)n2)nn1Cc1ccccc1F` [Compound I-69], for which the EC50 is not below 1000 nM.

Turning to `COc1cc(-c2ncc(F)c(N3CCC[C@H](C)[C@@H]3C(=O)O)n2)nn1Cc1ccccc1F` [Compound I-70], the 50% effective concentration (EC50) lay in the range of 101 to 1000 nM.

`CC1(C(N)=O)C(=O)Nc2nc(-c3cc(OC(F)F)n(Cc4ccccc4F)n3)nc(N)c21` (centres unmarked) [Compound I-71]: the EC50 was 101 to 1000 nM.

Another assay concerns Guinea pig tracheal smooth muscle (GPTSM).
Assay: not given
The note with it: guinea pig tracheal strips, sub-maximal EFS; 95% Cl 0.78-0.94; read-out: IC50, inhibition of baseline EFS-induced contraction; cited from earlier work.
Turning to `CC(C)[N+]1(C)[C@@H]2CC[C@H]1C[C@@H](OC(=O)C(CO)c1ccccc1)C2` (some centres unmarked) [Ipratropium bromide], the IC50 is 0.86 nM.

The subject of the next assay is lambs with acute pulmonary hypertension (U-46619).
Assay: not given
The note with it: after inhaling microparticles; cited from earlier work.
In the case of `Nc1nc(-c2nn(Cc3ccccc3F)c3ncccc23)nc(N)c1N1CCOCC1` [BAY 41-8543], the “magnitude and duration of pulmonary vasodilation induced by iNO” value is “augmented”.

The same assay, now with this note: inhaled microparticles, after intravenous ODQ; cited from earlier work.
Regarding `O=C(O)CCCCN(CCc1ccccc1OCc1ccc(CCc2ccccc2)cc1)Cc1ccc(C(=O)O)cc1` [BAY 58-2667], the “pulmonary vasodilation and transpulmonary cGMP release after treatment with ODQ” value is “greatly enhanced”.

The assay is the same for the next values; noted with them: inhaled microparticles, awake lambs, U-46619 infusion; cited from earlier work.
Consider `Nc1nc(-c2nn(Cc3ccccc3F)c3ncccc23)ncc1C1CC1` [BAY 41-2272], for which the “effect on mean arterial pressure” value was “without significant effect on mean arterial pressure”, the pulmonary vasodilation result was “dose dependent pulmonary vasodilation” and the “transpulmonary cGMP release” value is “increased transpulmonary cGMP release”.

`Nc1nc(-c2nn(Cc3ccccc3F)c3ncccc23)nc(N)c1N1CCOCC1` [BAY 41-8543]: the “effect on mean arterial pressure” value is given as “without significant effect on mean arterial pressure”, the pulmonary vasodilation entry is on record as “dose dependent pulmonary vasodilation” and the “transpulmonary cGMP release” value is listed as “increased transpulmonary cGMP release”.

Regarding `O=C(O)CCCCN(CCc1ccccc1OCc1ccc(CCc2ccccc2)cc1)Cc1ccc(C(=O)O)cc1` [BAY 58-2667], the “effect on mean arterial pressure” value is “without significant effect on mean arterial pressure”, the pulmonary vasodilation result was “dose dependent pulmonary vasodilation” and the “transpulmonary cGMP release” value is given as “increased transpulmonary cGMP release”.

The same assay, now with this note: inhaled microparticles, awake lambs; cited from earlier work.
In the case of `Nc1nc(-c2nn(Cc3ccccc3F)c3ncccc23)nc(N)c1N1CCOCC1` [BAY 41-8543], the systemic arterial oxygenation result was “increased systemic arterial oxygenation”.

As to `O=C(O)CCCCN(CCc1ccccc1OCc1ccc(CCc2ccccc2)cc1)Cc1ccc(C(=O)O)cc1` [BAY 58-2667], the systemic arterial oxygenation entry is reported as “increased systemic arterial oxygenation”.

For a further assay, the system named is patients with BMD.
Assay: not given
The note with it: single oral dose of 20 mg, double-blind randomized placebo-controlled crossover trial; cited from earlier work.
Regarding `CN1CC(=O)N2[C@H](c3ccc4c(c3)OCO4)c3[nH]c4ccccc4c3C[C@@H]2C1=O` [tadalafil], the “normal blood flow regulation” value was “restored in eight of nine patients”.

In the next assay the test system is obese mice.
Assay: not given
Conditions: cited from earlier work.
As for `O=C(O)CCCCN(CCc1cc(F)ccc1OCc1ccc(-c2ccc(C(F)(F)F)cc2)cc1)Cc1ccc(C(=O)O)cc1` [BAY 60-2770], the “effect on overactive bladder” value is on record as “ameliorates overactive bladder in obese mice”.

Another assay relates to NO-deficient rats.
Assay: not given
The note with it: cited from earlier work.
As for `Nc1nc(-c2nn(Cc3ccccc3F)c3ncccc23)ncc1C1CC1` [BAY-2272], the “effect on bladder dysfunction” value is listed as “protective effects”.
